Where two headings read alike, the source gives them in different places.
Experiments:
[1] = Stability and confirmation analysis of stock and dose formulations; format: physicochemical
Procedure: Brincidofovir injectable liquid stock formulation was prepared to 15 mg/mL brincidofovir, compounded from stock solutions inclusive of three (3) steps: (1) 2× sodium phosphate buffer solution (400 mM, pH=8.0) was prepared; (2) 1.0 N sodium hydroxide solution was purchased; brincidofovir injectable liquid stock formulation (15 mg/mL brincidofovir, 200 mM sodium phosphate, pH=8.0) from solid brincidofovir, 1.0 N sodium hydroxide solution, 2× sodium phosphate buffer solution and WFI (water for injection) was prepared.
The brincidofovir injectable liquid stock formulation is stable for 28 days under refrigerated conditions (2 to 8° C.). Brincidofovir injectable liquid stock formulation was diluted with 5% dextrose to yield the desired dose concentration.
The brincidofovir stock solution of 15.0 mg/mL was stable for 24 hours when stored at room temperature (nominally 20° C.) and for 8, 14 and 28 days when stored at 2 to 8° C.
Two samples (5 mL each) were taken on the day of preparation from the middle region of each dosing formulation (including control) prepared for each week. One sample was analyzed, in duplicate, for dose confirmation analysis and one sample was retained refrigerated (2 to 8° C.) (Due to initial results outside the study acceptance plan criteria (±10% of nominal), the Group 2 retained samples were re-analyzed for Weeks 1 and 2).
Analysis of preliminary mixes confirmed that the test item was stable in the vehicle for at least 24 hours at room temperature (nominally 20° C.) and for at least 8 days at 2 to 8° C. (under storage conditions used in this study). Analyses conducted during the treatment period confirmed that with the exception of the Day 1, 1 mg/mL (Group 2) formulation, dose solutions of appropriate concentration were administered. The Day 1, 1 mg/mL dose solution was 86.7% of nominal. Without wishing to be bound by theory, it was concluded that due to interactions at the meniscus, the volume collected for dose formulation analysis may have lowered the analysis results. The volume collected for analysis was increased for subsequent weekly preparations and confirmed to be of appropriate concentration.

[2] = IV BCV single ascending dose study: plasma BCV and CDV PK; format: in vivo, human; conditions: for Tmax / clearance / half-life / AUC(0-inf) / Cmax / Vd: human; for Tmax: intravenous; for clearance / half-life / AUC(0-inf) / Cmax / Vd: plasma; for Vd: read-out: Vss
Procedure: Plasma PK samples were collected over 7 days and assayed by HPLC-MS. Plasma BCV PK parameters were determined by non-compartmental analysis and dose proportionality was assessed. Safety assessments were collected over 14 days.

[3] = pH stability of brincidofovir stock solutions (50 μg/mL, 50 mM phosphate pH 6.0-8.0, 20% methanol); format: physicochemical
Procedure: Brincidofovir sample stock solutions (50 μg/mL) were prepared in 50 mM phosphate buffer at pH 6.0-8.0 containing 20% methanol. The samples were aliquoted and stored at two temperatures (T=2-8° C. and T=40° C.), and monitored for pH and recovery of brincidofovir at multiple time points over the course of two weeks. Under both conditions, the samples maintained the pH level throughout the time course of the experiment.
The decrease may be related to the observed precipitation. Variation for pH 7.0 is observed for t>8 days. One impurity (RT=4.7 min) was detected that exceeded the set total peak area threshold that was applied for peak integration. The percent of the total peak area was below 0.4% for samples at pH 6 and 6.5, and below 0.1% for samples at higher pH.
For the samples at lower pH, a peak associated with the deamination product of brincidofovir, was observed, encompassing an area % of 1.91 at pH 6.0, and 0.58 at pH 6.5. The degradants peak is not observed at neutral pH and above.

[4] = PBMC PK of CDV-PP following IV and oral suspension BCV; format: in vivo, human; conditions: BCV 50 mg, 2- or 4-h IV infusion
Procedure: Two single dose BCV studies in healthy subjects contributed data for this analysis. The first study was a 2-period crossover bioequivalence study that enrolled 24 subjects who received two formulations of BCV oral suspension 100 mg fasted, one in each period. Data from 12 subjects who had PBMCs collected in Period 1 were included in this analysis; these subjects were 100% female, 31-59 years, and 58-88 kg. The second study, outlined above, enrolled 40 subjects who received IV BCV or placebo. Data from 18 subjects who received BCV 50 mg as either a 2-h or 4-h IV infusion were included in this analysis; these subjects were 100% male, 18-46 years, 64-106 kg. Serial PBMC samples were collected over 14 days and assayed by HPLC-MS-MS. PBMC CDV-PP PK parameters were determined by non-compartmental analysis.

[5] = iv, 10 mg, plasma BCV, Cohort 1, BCV 10 mg 2 h IV infusion, n = 6
[6] = iv, 25 mg, plasma BCV, Cohort 2, BCV 25 mg 2 h IV infusion, n = 6
[7] = iv, 50 mg, plasma BCV, Cohort 3, BCV 50 mg 2 h IV infusion, n = 9
[8] = iv, 50 mg, plasma BCV, Cohort 4, BCV 50 mg 4 h IV infusion, n = 9

With `CCCCCCCCCCCCCCCCOCCCOP(=O)(O)CO[C@H](CO)Cn1ccc(N)nc1=O` [Brincidofovir] the “Stable for (refrigerated)” value ([1]; 0.05 mg/mL and 2.0 mg/mL, 2 to 8 °C) was “at least 8 days”, the “Stable for (room temperature)” value ([1]; 0.05 mg/mL and 2.0 mg/mL, room temperature) was “at least 24 hours” and the “ANALYTICAL CONCENTRATION (% of Nominal)” value ([1]; dose formulation Day 1, Group 2, nominal 1 (ppm) OR (mg/mL)) was 86.7 % of Nominal. For the same compound, the “ANALYTICAL CONCENTRATION (% of Nominal)” value ([1]; dose formulation Day 1, Group 2 Back-up, nominal 1 (ppm) OR (mg/mL)) was 76.9 % of Nominal, the “ANALYTICAL CONCENTRATION (% of Nominal)” value ([1]; dose formulation Day 1, Group 2 Repeat Preparation, nominal 1 (ppm) OR (mg/mL)) was 75.5 % of Nominal and the “ANALYTICAL CONCENTRATION (% of Nominal)” value ([1]; dose formulation Day 1, Group 3, nominal 4 (ppm) OR (mg/mL)) was 95.7 % of Nominal. The “ANALYTICAL CONCENTRATION (% of Nominal)” value ([1]; dose formulation Day 1, Group 4, nominal 15 (ppm) OR (mg/mL)) was 100.7 % of Nominal, the “ANALYTICAL CONCENTRATION (% of Nominal)” value ([1]; dose formulation Week 2, Group 2, nominal 1 (ppm) OR (mg/mL)) was 90.1 % of Nominal and the “ANALYTICAL CONCENTRATION (% of Nominal)” value ([1]; dose formulation Week 2, Group 2 Back-up, nominal 1 (ppm) OR (mg/mL)) was 86.8 % of Nominal. For the same compound, the “ANALYTICAL CONCENTRATION (% of Nominal)” value ([1]; dose formulation Week 2, Group 3, nominal 4 (ppm) OR (mg/mL)) was 95.4 % of Nominal, the “ANALYTICAL CONCENTRATION (% of Nominal)” value ([1]; dose formulation Week 2, Group 4, nominal 15 (ppm) OR (mg/mL)) was 102.9 % of Nominal and the “ANALYTICAL CONCENTRATION (% of Nominal)” value ([1]; dose formulation Week 3, Group 2, nominal 1 (ppm) OR (mg/mL)) was 93.2 % of Nominal. For the same compound, the “ANALYTICAL CONCENTRATION (% of Nominal)” value ([1]; dose formulation Week 3, Group 3, nominal 4 (ppm) OR (mg/mL)) was 94.8 % of Nominal, the “ANALYTICAL CONCENTRATION (% of Nominal)” value ([1]; dose formulation Week 3, Group 4, nominal 15 (ppm) OR (mg/mL)) was 100.2 % of Nominal and the “ANALYTICAL CONCENTRATION (% of Nominal)” value ([1]; dose formulation Week 4, Group 2, nominal 1 (ppm) OR (mg/mL)) was 92.8 % of Nominal. For the same compound, the “ANALYTICAL CONCENTRATION (% of Nominal)” value ([1]; dose formulation Week 4, Group 3, nominal 4 (ppm) OR (mg/mL)) was 96.9 % of Nominal, the “ANALYTICAL CONCENTRATION (% of Nominal)” value ([1]; dose formulation Week 4, Group 4, nominal 15 (ppm) OR (mg/mL)) was 101.0 % of Nominal and the “ANALYTICAL CONCENTRATION (% of Nominal)” value ([1]; dose formulation Week 5, Group 2, nominal 1 (ppm) OR (mg/mL)) was 94.9 % of Nominal. For the same compound, the “ANALYTICAL CONCENTRATION (% of Nominal)” value ([1]; dose formulation Week 5, Group 3, nominal 4 (ppm) OR (mg/mL)) was 97.7 % of Nominal, the “ANALYTICAL CONCENTRATION (% of Nominal)” value ([1]; dose formulation Week 5, Group 4, nominal 15 (ppm) OR (mg/mL)) was 101.1 % of Nominal and the “Geometric mean plasma BCV AUC∞ relative to oral 100 mg tablets” value ([2]; BCV IV 50 mg) was 4.5 fold. The “Plasma BCV Cmax and AUCs vs dose” value ([2]; IV single ascending dose) was “increased in proportion to dose”, the Tmax ([2]; 50 mg, plasma BCV, 4-hour infusion (Cohort 4)) was 2.5 to 4 h and the Tmax ([2]; plasma BCV, Cohorts 1-3 (2-hour infusion)) was 2 h. It also gave a clearance [2, 5] of 127 mL/min, a half-life [2, 5] of 3.42 h and an AUC(0-inf) ([2]; iv, 10 mg, plasma BCV, Cohort 1, BCV 10 mg 2 h IV infusion, n = 6, geometric mean, read-out: AUC∞) of 1310 ng·h/mL. The Cmax ([2]; iv, 10 mg, plasma BCV, Cohort 1, BCV 10 mg 2 h IV infusion, n = 6, geometric mean, read-out: Cmax) was 613 ng/mL, the Vd [2, 5] was 16.4 L and the clearance [2, 6] was 144 mL/min. It also gave a half-life [2, 6] of 5.89 h, an AUC(0-inf) ([2]; iv, 25 mg, plasma BCV, Cohort 2, BCV 25 mg 2 h IV infusion, n = 6, geometric mean, read-out: AUC∞) of 2890 ng·h/mL and a Cmax ([2]; iv, 25 mg, plasma BCV, Cohort 2, BCV 25 mg 2 h IV infusion, n = 6, geometric mean, read-out: Cmax) of 1410 ng/mL. It also gave a Vd [2, 6] of 19.8 L, a clearance [2, 7] of 140 mL/min and a half-life [2, 7] of 6.54 h. It also gave an AUC(0-inf) ([2]; iv, 50 mg, plasma BCV, Cohort 3, BCV 50 mg 2 h IV infusion, n = 9, geometric mean, read-out: AUC∞) of 5950 ng·h/mL, a Cmax ([2]; iv, 50 mg, plasma BCV, Cohort 3, BCV 50 mg 2 h IV infusion, n = 9, geometric mean, read-out: Cmax) of 2950 ng/mL and a Vd [2, 7] of 19.5 L. It also gave a clearance [2, 8] of 127 mL/min, a half-life [2, 8] of 5.1 h and an AUC(0-inf) ([2]; iv, 50 mg, plasma BCV, Cohort 4, BCV 50 mg 4 h IV infusion, n = 9, geometric mean, read-out: AUC∞) of 6570 ng·h/mL. The Cmax ([2]; iv, 50 mg, plasma BCV, Cohort 4, BCV 50 mg 4 h IV infusion, n = 9, geometric mean, read-out: Cmax) was 1590 ng/mL, the Vd [2, 8] was 10.8 L and the AUC(0-inf) ([2]; po, 100 mg, BCV oral 100 mg tablets, read-out: Plasma BCV AUC∞) was 1390 ng·h/mL. For the same compound, the Cmax ([2]; po, 100 mg, BCV oral 100 mg tablets, read-out: Plasma BCV Cmax) was 251 ng/mL, the “Impurity (RT=4.7 min), percent of total peak area” value ([3]; 2-8 °C, higher pH) was “below 0.1%” and the “Time at which precipitation was observed” value ([3]; 2-8 °C, pH 6.0) was 2 days. The “Impurity (RT=4.7 min), percent of total peak area” value ([3]; 2-8 °C, pH 6 and 6.5) was “below 0.4%”, the “Time at which precipitation was observed” value ([3]; 2-8 °C, pH 6.5) was 2 days and the “Time at which precipitation was observed” value ([3]; 2-8 °C, pH 7.0) was 4 days. For the same compound, the Appearance ([3]; 2-8 °C, pH 7.5 and pH 8.0, two weeks) was “no observable change in appearance”, the Appearance ([3]; 40 °C, any pH) was “no physical change in appearance” and the “Deamination product peak area %” value ([3]; 40 °C, pH 6.0) was 1.91%. For the same compound, the “Deamination product peak area %” value ([3]; 40 °C, pH 6.5) was 0.58% and the “Intracellular CDV-PP exposure vs BCV 100 mg oral suspension” value [4] was “comparable”.

Reference: US20170368082A1, “FORMULATIONS OF BRINCIDOFOVIR” (priority 2016, published 2017)
